Experimental data published in patent US20120270237A9, “METHODS FOR THE IDENTIFICATION OF KINASE INTERACTING MOLECULES AND FOR THE PURIFICATION OF KINASE PROTEINS” (Cellzone AG, priority 2009, published 2012).

Legend:
Assay in all cases: Kinobeads competition binding, HL60 cell lysate
Conditions in all cases: 10 μM free compound
MARK2 = MARK2 (Homo sapiens, UniProt Q7KZI7); parameters: endogenous in cells; host or cells: HL60 cell lysate
Method: (§1) To one aliquot of cell lysate 10 μM of the free compound (FIG. 3, CZC31326) was added and allowed to bind to proteins in the lysate. Then the affinity matrix with the immobilized compound (Example 1) was added to capture proteins that were not interacting with the previously added free compound. Beads were separated from the lysate and bead bound proteins were eluted in SDS sample buffer and subsequently separated by SDS-Polyacrylamide gel electrophoresis (FIG. 4). Suitable gel bands were cut out and subjected to in-gel proteolytic digestion with trypsin. The second lysate aliquot was processed identically, however no free compound was added (DMSO solvent control). Peptides originating from samples 1 and 2 were labeled with iTRAQ reagents (iTRAQ 114 and iTRAQ 117) and the combined samples were analyzed with a nano-flow liquid chromatography system coupled online to a tandem mass spectrometer (LC-MS/MS) experiment followed by iTRAQ reporter ion quantification in the MS/MS spectra (Ross et al., 2004. Mol. Cell. Proteomics 3(12):1154-1169). Further experimental protocols can be found in WO2006/134056 and a previous publication (Bantscheff et al., 2007. Nature Biotechnology 25, 1035-1044). Sepharose-beads with the immobilized compound (100 μl beads per pull-down experiment) were equilibrated in lysis buffer and incubated with a cell lysate sample containing 50 mg of protein on an end-over-end shaker (Roto Shake Genie, Scientific Industries Inc.) for 2 hours at 4° C. […] The iTRAQ reagents are a set of multiplexed, amine-specific, stable isotope reagents that can label peptides on amino groups in up to four different biological samples enabling simultaneous identification and quantitation of peptides. […] Relative protein quantitation was performed using peak areas of iTRAQ reporter ion signals essentially as described in an earlier publication (Bantscheff et al., 2007. Nature Biotechnology 25, 1035-1044).

MAP3K5 = molecular target: T1, MAP3K5 (Homo sapiens, UniProt Q99683); parameters: endogenous in cells; host or cells: HL60 cell lysate
T1 sequence (Q99683 1-1374): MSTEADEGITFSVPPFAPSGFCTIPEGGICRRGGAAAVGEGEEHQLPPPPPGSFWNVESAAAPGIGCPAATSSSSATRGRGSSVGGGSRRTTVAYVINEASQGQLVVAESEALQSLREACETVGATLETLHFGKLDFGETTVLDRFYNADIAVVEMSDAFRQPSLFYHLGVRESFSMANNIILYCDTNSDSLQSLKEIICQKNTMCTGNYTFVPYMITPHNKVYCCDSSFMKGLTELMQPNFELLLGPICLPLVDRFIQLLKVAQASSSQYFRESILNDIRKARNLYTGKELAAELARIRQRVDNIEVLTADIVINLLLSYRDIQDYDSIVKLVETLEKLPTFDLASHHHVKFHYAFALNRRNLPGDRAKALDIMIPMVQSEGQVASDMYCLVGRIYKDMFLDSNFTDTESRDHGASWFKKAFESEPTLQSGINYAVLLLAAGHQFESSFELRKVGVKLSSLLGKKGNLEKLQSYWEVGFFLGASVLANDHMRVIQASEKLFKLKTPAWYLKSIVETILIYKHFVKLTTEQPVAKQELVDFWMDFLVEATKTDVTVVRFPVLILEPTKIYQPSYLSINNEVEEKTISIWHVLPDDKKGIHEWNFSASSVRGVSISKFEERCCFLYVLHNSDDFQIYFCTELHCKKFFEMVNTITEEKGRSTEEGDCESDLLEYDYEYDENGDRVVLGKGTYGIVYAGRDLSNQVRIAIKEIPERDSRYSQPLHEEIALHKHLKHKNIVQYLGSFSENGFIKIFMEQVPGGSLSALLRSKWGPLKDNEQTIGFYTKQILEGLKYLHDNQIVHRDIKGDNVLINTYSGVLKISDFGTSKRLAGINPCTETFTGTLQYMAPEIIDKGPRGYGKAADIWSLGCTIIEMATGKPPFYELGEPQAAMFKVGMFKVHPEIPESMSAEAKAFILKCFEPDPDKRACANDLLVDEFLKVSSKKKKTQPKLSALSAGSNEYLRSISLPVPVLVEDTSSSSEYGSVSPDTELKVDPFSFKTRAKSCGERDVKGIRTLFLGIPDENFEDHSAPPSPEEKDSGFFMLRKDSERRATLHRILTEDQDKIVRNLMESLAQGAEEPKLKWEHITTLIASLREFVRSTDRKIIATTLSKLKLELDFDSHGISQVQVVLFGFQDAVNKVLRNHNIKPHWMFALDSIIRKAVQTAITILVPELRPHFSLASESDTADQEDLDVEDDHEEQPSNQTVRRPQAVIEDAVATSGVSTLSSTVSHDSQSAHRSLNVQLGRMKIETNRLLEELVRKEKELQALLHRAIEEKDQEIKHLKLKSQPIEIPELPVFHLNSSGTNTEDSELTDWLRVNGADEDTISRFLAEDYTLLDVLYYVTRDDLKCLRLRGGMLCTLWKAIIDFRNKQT
Method: as §1

DNAPK = DNAPK (Homo sapiens, UniProt P78527); parameters: endogenous in cells; host or cells: HL60 (DSMZ ACC3)
Method: as §1

FER = FER (Homo sapiens, UniProt P16591); parameters: endogenous in cells; host or cells: HL60 (DSMZ ACC3)
Method: as §1

MARK2, sequence (Q7KZI7 whole entry): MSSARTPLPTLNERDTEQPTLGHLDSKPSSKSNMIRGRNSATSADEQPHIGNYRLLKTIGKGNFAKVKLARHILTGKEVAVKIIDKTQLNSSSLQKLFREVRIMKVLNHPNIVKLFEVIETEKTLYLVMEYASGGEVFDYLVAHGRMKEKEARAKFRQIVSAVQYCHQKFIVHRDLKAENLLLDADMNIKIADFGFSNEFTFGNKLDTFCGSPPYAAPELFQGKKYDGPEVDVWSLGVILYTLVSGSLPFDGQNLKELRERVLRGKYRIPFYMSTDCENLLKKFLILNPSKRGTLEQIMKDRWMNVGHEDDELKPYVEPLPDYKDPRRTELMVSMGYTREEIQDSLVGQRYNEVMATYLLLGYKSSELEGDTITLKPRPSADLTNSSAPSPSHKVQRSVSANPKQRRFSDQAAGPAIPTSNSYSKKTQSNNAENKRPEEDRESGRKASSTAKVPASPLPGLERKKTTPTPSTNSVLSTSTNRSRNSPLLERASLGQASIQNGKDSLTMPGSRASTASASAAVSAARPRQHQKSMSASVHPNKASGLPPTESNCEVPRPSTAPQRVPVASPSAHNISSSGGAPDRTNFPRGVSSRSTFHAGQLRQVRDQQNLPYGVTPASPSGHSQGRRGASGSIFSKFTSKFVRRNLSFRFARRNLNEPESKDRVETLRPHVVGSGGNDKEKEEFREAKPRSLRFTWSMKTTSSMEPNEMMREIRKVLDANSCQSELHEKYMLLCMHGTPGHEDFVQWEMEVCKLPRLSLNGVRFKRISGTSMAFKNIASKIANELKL
FER, sequence (P16591 whole entry): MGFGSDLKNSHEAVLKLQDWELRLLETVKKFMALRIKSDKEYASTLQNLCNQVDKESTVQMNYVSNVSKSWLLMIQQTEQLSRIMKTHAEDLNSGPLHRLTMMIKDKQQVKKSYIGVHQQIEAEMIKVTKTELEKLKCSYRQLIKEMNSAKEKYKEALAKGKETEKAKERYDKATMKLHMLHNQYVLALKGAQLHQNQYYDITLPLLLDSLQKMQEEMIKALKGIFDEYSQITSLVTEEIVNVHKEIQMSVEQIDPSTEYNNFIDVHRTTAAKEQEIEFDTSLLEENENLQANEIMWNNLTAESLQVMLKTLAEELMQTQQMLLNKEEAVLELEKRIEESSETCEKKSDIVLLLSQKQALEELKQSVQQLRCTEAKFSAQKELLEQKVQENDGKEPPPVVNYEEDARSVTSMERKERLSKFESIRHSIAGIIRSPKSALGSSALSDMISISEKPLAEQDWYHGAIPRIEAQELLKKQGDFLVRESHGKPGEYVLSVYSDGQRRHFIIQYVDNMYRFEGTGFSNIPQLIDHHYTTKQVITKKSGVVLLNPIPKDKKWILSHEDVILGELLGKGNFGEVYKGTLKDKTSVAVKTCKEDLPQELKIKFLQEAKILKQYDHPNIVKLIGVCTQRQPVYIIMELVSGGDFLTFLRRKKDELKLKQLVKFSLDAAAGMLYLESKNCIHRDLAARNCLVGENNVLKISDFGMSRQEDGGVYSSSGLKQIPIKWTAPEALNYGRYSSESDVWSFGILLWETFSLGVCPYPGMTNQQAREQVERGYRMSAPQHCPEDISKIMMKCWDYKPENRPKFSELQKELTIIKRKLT

inhibition at 10 µM (MARK2): 97.1% | inhibition at 10 µM (MAP3K5): 88.4% | inhibition at 10 µM (DNAPK): 75.5% | inhibition at 10 µM (FER): 97.7%
Compound: CS(=O)(=O)Nc1ccccc1Nc1nc(Nc2cccc(OCCN)c2)ncc1Cl [CZC31326, N-(2-(2-(3-(2-aminoethoxy)phenylamino)-5-chloropyrimidin-4-ylamino)phenyl)methanesulfonamide]
